Patent publication US20230152325A1, “Active Alpha-5-Beta-1 Integrin As A Biomarker For Enhancing Tumor Treatment Efficacy” (Institute For Cancer Research d/b/a The Research Institute …, priority 2016, published 2023)

Tests used:
[1] = target: alpha-5-beta-1 (α5β1) integrin, human (human) (UniProt P08648); assay: cell-based or functional assay
[2] = target: αvβ5 integrin, murine (murine) (UniProt P43406); assay: cell-based or functional assay
[3] = target: alpha-v-beta-5 (αvβ5) integrin, human (human) (UniProt P06756); assay: cell-based or functional assay
[4] = system: naïve pancreatic fibroblasts cultured within D-ECM; assay: ECM prompted myofibroblastic maintenance (α-SMA / F-actin immunofluorescence), PDAC model; format: cell-based, human; conditions: for α-SMA expression, Median / α-SMA stress fiber localization, Median: normalized to untreated D-ECM = 1; for D-ECM induced myofibroblastic phenotype (α-SMA expression / stress fiber localization), in words: naïve cells within D-ECM treated with the agent
Protocol: (§1) ECM prompted myofibroblastic maintenance. Human naïve or assorted murine fibroblasts were incubated for 45 minutes prior to overnight culturing within assorted ECMs, prepared as above, in the presence or absence of 50 μg/ml SNAKA51, 60 μg/m ALULA, 250 μg/m mAb16, or BMAS diluted as instructed by the manufacturer (Millipore, Temecula, Calif.), IgG control, DMSO or small molecule inhibitors FAK (PF573,228) and SRC family kinases (PP2). ECM-induced phenotypes were assessed via RT-qPCR, Western Blot or immunofluorescence.
(§2) Naïve/innate PDAC and RCC patient harvested fibroblasts were cultured overnight within normal (N-ECM) vs. desmoplastic (D-ECM or DECMs that were produced in the presence or absence of TGFβ1-receptor inhibition (D+TGFβi) or vehicle control (D+DMSO). Alternatively, naïve cells cultured within D-ECMs were treated with either TGFβ1-receptor inhibitor (TGFβ-i), vehicle (DMSO), functional blocking antibodies anti-αvβ5 integrin (alula, αvβ5-i), anti-α5β1 integrin (mAb16, α5β1-i), combinations of both functional blocking antibodies (β5-i+α5-i), functional stabilizing anti α5β1 integrin (SNAKA51; α5β1-act) or non-immunized isotypic antibodies (IgG). All samples were subjected to indirect immunofluorescent labeling of desmoplastic marker α-SMA and counterstained with fluorescently labeled phalloidin to detect actin stress fibers (F-actin) and determine the co-localization ratio. Monochromatic “heat map” images (see, FIG. 2A) represent α-SMA intensity values. A 255 tones intensity scale bar is shown to the right. A summary of all measured values is graphed in FIG. 2B. Additional monochromatic images indicative of double labeled staining for α-SMA and F-actin are in FIG. 2C while levels of total α-SMA localized at corresponding stress fibers are plotted in FIG. 2D. Untreated D-ECM conditions were included in all experiments summarized in this figure and serve as normalization (1 arbitrary unit; a.u.) controls. Matching values including statistical significances are listed in accompanying Table 1. All scale bars represent 50 μm. TGFβ activity was needed to maintain functional D-ECM production but was dispensable when testing D-ECM induced responses, while the later were obstructed by αvβ5 integrin inhibition or active α5β1 integrin stabilization.

[5] = system: TGFβ levels stored within ECMs; assay: TGFβ protein levels in 3D unextracted culture lysates by ELISA; format: cell-based, human; conditions: inhibitor used during D-ECM production; <0.0001
Description: (§3) FIGS. 7A through 7F show characterization of human fibroblastic cells isolated from PDAC and RCC surgical samples. […] Isolated cells were probed for desmoplastic markers α-SMA and palladin while Panc1 (a pancreatic cancer cell line) cells were used as epithelial to mesenchyme […] (EMT) controls known to express both epithelial and mesenchymal markers. Assorted markers are shown in white while counterstained Hoechst identified nuclei are shown in yellow. […] TGFβ inhibition causes disorganization of desmoplastic and ablation of normal ECMs. […] Data were normalized to total protein concentration and to D-ECM readouts; results are expressed as arbitrary units (A.U.). […] All scale bars represent 50 μm.

[6] = system: RCC desmoplastic fibroblasts (D-ECM production); assay: ECM fiber orientation analysis of D-ECM produced by RCC-associated fibroblasts; format: cell-based, human
Description: (§4) Preparation of fibroblasts-derived 3D ECMs. Extracellular matrices (ECMs) were obtained in the presence or absence of TGFβ1R small molecule inhibitor SB431542, DMSO, conformation-dependent anti-active α5 integrin functional antibody (SNAKA51), functional-blocking anti αvβ5 integrin (ALULA), or species matched non-immunized isotypic antibodies. Un-extracted 3D cultures were either processed for phenotypic characterization, ECM alignment measurements, or decellularized to assess maintenance of myofibroblastic phenotype.
ECM fiber orientation analysis. Fibronectin channel monochromatic images were analyzed via Imager OrientationJ plugin. […] Angle spreads for each experimental condition, corresponding to a minimum of three experimental repetitions and five image acquisitions per condition were plotted and their standard deviations calculated. The percentage of fibers oriented between −15° and 15° was determined for each normalized image-obtained data.
FIGS. 1A through 1E show desmoplastic (D)-ECM remodeling by TGFβ-blockage bestows normal (N)-ECM-like phenotypes. Fibroblasts were isolated from pancreatic ductal adenocarcinoma (PDAC) and renal cell carcinoma (RCC) surgical samples and their ECM producing phenotypes were assessed prior to ECM decellularization via fibroblastic extraction. […]

[7] = system: PDAC desmoplastic fibroblasts (D-ECM production); assay: ECM fiber orientation analysis of D-ECM produced by PDAC-associated fibroblasts; format: cell-based, human
Protocol: Un-extracted 3D cultures were either processed for phenotypic characterization, ECM alignment measurements, or decellularized to assess maintenance of myofibroblastic phenotype. ECM fiber orientation analysis. Fibronectin channel monochromatic images were analyzed via Imager OrientationJ plugin. Numerical outputs were normalized by setting mode angles to 0° and correcting angle spreads to fluctuate between −90° and 90°. Angle spreads for each experimental condition, corresponding to a minimum of three experimental repetitions and five image acquisitions per condition were plotted and their standard deviations calculated. The percentage of fibers oriented between −15° and 15° was determined for each normalized image-obtained data. FIGS. 1A through 1E show desmoplastic (D)-ECM remodeling by TGFβ-blockage bestows normal (N)-ECM-like phenotypes. Fibroblasts were isolated from pancreatic ductal adenocarcinoma (PDAC) and renal cell carcinoma (RCC) surgical samples and their ECM producing phenotypes were assessed prior to ECM decellularization via fibroblastic extraction. […] Complementary low/heterogeneous vs. high/organized α-SMA levels, with heterogeneous/round vs. elongated/spindled cell nuclei, and disorganized/woven vs. parallel/aligned ECM fibers are evident in the representative images. […] Scale bars represent 50 μm.

[8] = system: naïve renal fibroblasts cultured within D-ECM; assay: ECM prompted myofibroblastic maintenance (α-SMA / F-actin immunofluorescence), RCC model; format: cell-based, human; conditions: for α-SMA expression, Median / α-SMA stress fiber localization, Median: normalized to untreated D-ECM = 1; for D-ECM induced myofibroblastic phenotype (α-SMA expression / stress fiber localization), in words: naïve cells within D-ECM treated with the agent
Protocol: as §1, §2

[9] = system: normal fibroblasts (N-ECM assembly); assay: N-ECM assembly by normal fibroblasts under TGFβ1-receptor blockage; format: cell-based, human; conditions: blockage of TGFβ signaling during ECM production
Description: as §4, §3

[10] = PDAC, naïve cells within D-ECM treated overnight
[11] = PDAC, naïve fibroblasts in D-ECM that was produced in presence of TGFβ1-receptor inhibitor
[12] = SB-431542 during D-ECM production
[13] = RCC, naïve cells within D-ECM treated overnight
[14] = RCC, naïve fibroblasts in D-ECM that was produced in presence of TGFβ1-receptor inhibitor

Chain of UniProt P06756 (P06756 31-1048, chain 1 of 2): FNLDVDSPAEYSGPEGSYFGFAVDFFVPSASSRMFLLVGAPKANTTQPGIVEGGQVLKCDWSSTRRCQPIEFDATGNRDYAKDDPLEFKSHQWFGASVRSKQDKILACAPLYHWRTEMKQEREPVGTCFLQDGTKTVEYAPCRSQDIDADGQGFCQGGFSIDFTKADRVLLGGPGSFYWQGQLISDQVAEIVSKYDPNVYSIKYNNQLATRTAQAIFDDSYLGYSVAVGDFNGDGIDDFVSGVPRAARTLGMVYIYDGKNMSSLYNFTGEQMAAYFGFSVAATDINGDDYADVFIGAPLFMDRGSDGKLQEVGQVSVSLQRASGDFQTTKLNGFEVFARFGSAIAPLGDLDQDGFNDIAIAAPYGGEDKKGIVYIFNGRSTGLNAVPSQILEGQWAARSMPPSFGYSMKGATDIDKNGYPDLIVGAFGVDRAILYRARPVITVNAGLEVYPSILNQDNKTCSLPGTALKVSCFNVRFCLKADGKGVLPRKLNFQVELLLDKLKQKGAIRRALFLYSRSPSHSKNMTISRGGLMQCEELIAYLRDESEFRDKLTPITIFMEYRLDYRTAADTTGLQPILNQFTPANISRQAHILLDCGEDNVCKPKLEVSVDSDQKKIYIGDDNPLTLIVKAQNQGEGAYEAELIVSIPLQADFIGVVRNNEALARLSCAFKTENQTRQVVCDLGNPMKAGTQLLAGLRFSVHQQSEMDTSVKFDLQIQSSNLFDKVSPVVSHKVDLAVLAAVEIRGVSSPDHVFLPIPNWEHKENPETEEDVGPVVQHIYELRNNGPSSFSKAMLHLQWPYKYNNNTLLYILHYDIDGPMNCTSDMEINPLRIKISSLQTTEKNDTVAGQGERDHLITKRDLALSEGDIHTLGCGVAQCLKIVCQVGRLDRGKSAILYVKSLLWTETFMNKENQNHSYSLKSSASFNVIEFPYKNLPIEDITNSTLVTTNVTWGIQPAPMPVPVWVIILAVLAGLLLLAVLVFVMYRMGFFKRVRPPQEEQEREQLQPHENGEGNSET
Chain of UniProt P06756 (P18084 24-799, chain 2 of 2, further chain): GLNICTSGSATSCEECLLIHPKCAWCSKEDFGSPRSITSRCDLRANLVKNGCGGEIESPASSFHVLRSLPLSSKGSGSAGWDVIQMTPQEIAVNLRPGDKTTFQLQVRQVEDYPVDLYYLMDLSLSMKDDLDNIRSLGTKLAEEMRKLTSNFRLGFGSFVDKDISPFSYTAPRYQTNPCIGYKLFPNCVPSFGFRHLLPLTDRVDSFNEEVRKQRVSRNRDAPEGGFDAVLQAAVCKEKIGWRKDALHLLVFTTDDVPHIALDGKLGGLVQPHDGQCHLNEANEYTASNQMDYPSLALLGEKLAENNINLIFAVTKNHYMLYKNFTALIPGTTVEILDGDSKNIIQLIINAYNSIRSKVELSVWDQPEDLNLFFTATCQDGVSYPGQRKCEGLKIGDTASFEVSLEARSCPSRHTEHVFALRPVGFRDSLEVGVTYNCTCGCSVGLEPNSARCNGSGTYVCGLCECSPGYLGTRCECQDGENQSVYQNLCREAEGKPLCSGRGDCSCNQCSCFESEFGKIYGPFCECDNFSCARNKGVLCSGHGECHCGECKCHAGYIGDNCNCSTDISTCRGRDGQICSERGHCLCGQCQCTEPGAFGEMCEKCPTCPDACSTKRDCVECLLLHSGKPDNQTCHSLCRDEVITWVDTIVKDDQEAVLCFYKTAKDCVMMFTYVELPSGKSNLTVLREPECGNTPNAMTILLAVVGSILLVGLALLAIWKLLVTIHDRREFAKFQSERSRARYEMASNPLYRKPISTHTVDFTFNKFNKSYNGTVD
Chain of UniProt P43406 (P43406 31-1044, chain 1 of 2): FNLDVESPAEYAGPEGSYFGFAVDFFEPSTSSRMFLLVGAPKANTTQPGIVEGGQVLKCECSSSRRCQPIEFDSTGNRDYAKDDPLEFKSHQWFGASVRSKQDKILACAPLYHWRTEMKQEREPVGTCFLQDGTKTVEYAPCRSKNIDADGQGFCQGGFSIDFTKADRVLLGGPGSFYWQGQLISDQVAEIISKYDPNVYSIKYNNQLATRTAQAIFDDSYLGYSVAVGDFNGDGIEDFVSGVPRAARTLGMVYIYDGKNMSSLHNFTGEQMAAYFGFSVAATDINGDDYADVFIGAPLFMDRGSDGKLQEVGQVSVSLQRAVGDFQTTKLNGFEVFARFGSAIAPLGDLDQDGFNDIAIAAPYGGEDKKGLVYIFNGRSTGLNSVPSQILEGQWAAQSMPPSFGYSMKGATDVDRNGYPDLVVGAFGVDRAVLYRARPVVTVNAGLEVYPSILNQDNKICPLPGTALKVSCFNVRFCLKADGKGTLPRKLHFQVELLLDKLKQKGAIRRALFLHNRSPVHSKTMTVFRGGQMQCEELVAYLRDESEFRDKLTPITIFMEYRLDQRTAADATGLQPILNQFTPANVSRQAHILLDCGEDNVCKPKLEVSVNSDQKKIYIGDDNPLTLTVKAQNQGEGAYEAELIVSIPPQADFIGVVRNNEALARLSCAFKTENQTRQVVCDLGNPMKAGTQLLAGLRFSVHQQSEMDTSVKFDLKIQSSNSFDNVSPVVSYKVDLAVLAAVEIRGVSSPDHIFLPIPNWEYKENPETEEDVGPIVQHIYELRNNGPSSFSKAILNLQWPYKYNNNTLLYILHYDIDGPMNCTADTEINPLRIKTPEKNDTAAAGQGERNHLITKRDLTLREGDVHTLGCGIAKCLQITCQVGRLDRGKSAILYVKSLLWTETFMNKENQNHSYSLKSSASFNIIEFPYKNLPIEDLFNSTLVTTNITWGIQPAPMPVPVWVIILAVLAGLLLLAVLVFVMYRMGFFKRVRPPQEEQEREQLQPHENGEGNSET
Chain of UniProt P43406 (O70309 24-798, chain 2 of 2, further chain): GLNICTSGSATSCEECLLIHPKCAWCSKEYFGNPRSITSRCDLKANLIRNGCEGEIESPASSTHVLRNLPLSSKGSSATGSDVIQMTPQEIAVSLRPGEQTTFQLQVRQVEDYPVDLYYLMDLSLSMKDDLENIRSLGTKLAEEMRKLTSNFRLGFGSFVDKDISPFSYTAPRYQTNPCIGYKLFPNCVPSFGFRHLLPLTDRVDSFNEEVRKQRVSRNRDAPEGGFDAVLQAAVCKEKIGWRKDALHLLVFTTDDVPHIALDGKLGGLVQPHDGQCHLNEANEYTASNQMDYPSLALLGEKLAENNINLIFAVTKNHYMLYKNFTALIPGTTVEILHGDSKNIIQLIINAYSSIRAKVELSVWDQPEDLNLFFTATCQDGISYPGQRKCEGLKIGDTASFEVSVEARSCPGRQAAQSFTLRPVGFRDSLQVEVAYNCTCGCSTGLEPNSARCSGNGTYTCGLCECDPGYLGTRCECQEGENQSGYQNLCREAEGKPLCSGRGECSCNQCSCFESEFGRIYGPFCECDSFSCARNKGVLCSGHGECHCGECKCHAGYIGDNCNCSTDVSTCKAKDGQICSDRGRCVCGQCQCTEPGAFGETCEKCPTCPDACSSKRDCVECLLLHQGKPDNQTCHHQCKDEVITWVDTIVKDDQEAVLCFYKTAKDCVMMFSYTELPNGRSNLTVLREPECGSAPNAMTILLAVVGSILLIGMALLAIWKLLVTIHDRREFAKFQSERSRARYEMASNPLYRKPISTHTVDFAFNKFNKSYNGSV

Question: What does the source list for “mAb16, functional blocking anti-α5β1 integrin antibody”?
Answer: α-SMA expression, PDAC, median (normalized to untreated D-ECM) [1]: 0.71 a.u.; α-SMA expression, RCC, median (normalized to untreated D-ECM) [1]: 0.53 a.u.; α-SMA stress fiber localization under FAK inhibitor PF573,228, PDAC [1]: 49%; α-SMA stress fiber localization under FAK inhibitor PF573,228, RCC [1]: 45%; α-SMA stress fiber localization, PDAC, median (normalized to untreated D-ECM) [1]: 0.77 a.u.; α-SMA stress fiber localization, RCC, median (normalized to untreated D-ECM) [1]: 0.89 a.u.

Question: “ALULA, functional-blocking anti αvβ5 integrin antibody” was tested. Which percentage of FAK-/- murine fibroblasts in mD-ECM undergoing myofibroblastic activation [2] did it give?
Answer: 14%

Question: What about the percentage of murine cells in mD-ECM with myofibroblast activation under FAK inhibitor PF573,228 [2] of the same compound?
Answer: 23%

Question: And the percentage of murine fibroblasts in mD-ECM undergoing myofibroblastic activation [2]?
Answer: 55%

Question: And the intracellular levels of α5β1 integrin activity, PDAC [3]?
Answer: 0%

Question: And the intracellular levels of α5β1 integrin activity, RCC [3]?
Answer: 60%

Question: And the α5β1 integrin activity localized away from 3D-adhesions, PDAC (relative to D-ECM, a.u.=1) [3]?
Answer: 0.32 a.u.

Question: What about the α5β1 integrin activity localized away from 3D-adhesions, RCC (relative to D-ECM, a.u.=1) [3] of the same compound?
Answer: 0.82 a.u.

Question: What about the α-SMA expression, PDAC, median (normalized to untreated D-ECM) [3] of the same compound?
Answer: 0.29 a.u.

Question: What about the α-SMA expression, RCC, median (normalized to untreated D-ECM) [3] of the same compound?
Answer: 0.58 a.u.

Question: And the α-SMA stress fiber localization, PDAC, median (normalized to untreated D-ECM) [3]?
Answer: 0.54 a.u.

Question: And the α-SMA stress fiber localization, RCC, median (normalized to untreated D-ECM) [3]?
Answer: 0.67 a.u.

Question: Which results are given for “SNAKA51, conformation-dependent anti-active α5 integrin functional antibody”?
Answer: α-SMA expression, PDAC, median (normalized to untreated D-ECM) [1]: 0.32 a.u.; α-SMA expression, RCC, median (normalized to untreated D-ECM) [1]: 0.43 a.u.; α-SMA stress fiber localization, PDAC, median (normalized to untreated D-ECM) [1]: 0.56 a.u.; α-SMA stress fiber localization, RCC, median (normalized to untreated D-ECM) [1]: 0.93 a.u.

Question: For `C[C@@H]1C[C@@H]([C@H](O)CC2CC(=O)NC(=O)C2)C(=O)[C@@H](C)C1` [cycloheximide], which “α-SMA protein outcome in naïve fibroblasts re-plated in D-ECM, in words” value ([4]; overnight treatment with protein synthesis inhibitor, model not specified) is on record?
Answer: did not influence outcomes

Question: For `NC(=O)c1ccc(-c2nc(-c3ccc4c(c3)OCO4)c(-c3ccccn3)[nH]2)cc1` [SB-431542], which “stress fiber localization of α-SMA relative to the untreated D-ECM” value ([4]; PDAC, D-ECM produced under TGFβ blockage, re-seeded with naïve fibroblasts) is on record?
Answer: 55%

Question: And the “α-SMA expression, Median” value [4, 10]?
Answer: 0.62 a.u.

Question: What about the “α-SMA stress fiber localization, Median” value [4, 10] of the same compound?
Answer: 0.96 a.u.

Question: And the “D-ECM induced myofibroblastic phenotype (α-SMA expression / stress fiber localization), in words” value ([4]; PDAC)?
Answer: comparable

Question: What about the “α-SMA expression, Median” value [4, 11] of the same compound?
Answer: 0.73 a.u.

Question: What about the “α-SMA stress fiber localization, Median” value [4, 11] of the same compound?
Answer: 0.55 a.u.

Question: And the “α-SMA expression levels relative to untreated conditions” value ([4]; PDAC, naïve fibroblasts plated in D-ECM in presence of the agent)?
Answer: 62%

Question: What about the “myofibroblastic phenotype induced de novo by the extracted ECM, in words” value ([4]; naïve pancreatic fibroblasts re-seeded in D-ECM produced in presence of SB-431542) of the same compound?
Answer: comparable phenotypes

Question: And the “reduction of TGFβ levels stored within ECMs” value [5]?
Answer: 60%

Question: What about the “fiber alignment (fibers distributed at 15° from the mode angle)” value [6, 12] of the same compound?
Answer: 47%

Question: And the “ECM fiber alignments reduced to” value ([6]; TGFβ blockage during D-ECM production, n=26, P=0.0028)?
Answer: 51%

Question: What about the “fiber alignment (fibers distributed at 15° from the mode angle)” value [7, 12] of the same compound?
Answer: 36%

Question: And the “ECM fiber alignments reduced to” value ([7]; TGFβ blockage during D-ECM production, n=21, P<0.0001)?
Answer: 47%

Question: And the “stress fiber localization of α-SMA relative to the untreated D-ECM” value ([8]; RCC, D-ECM produced under TGFβ blockage, re-seeded with naïve fibroblasts)?
Answer: 72%

Question: What about the “α-SMA expression, Median” value [8, 13] of the same compound?
Answer: 1.00 a.u.

Question: What about the “α-SMA stress fiber localization, Median” value [8, 13] of the same compound?
Answer: 1.03 a.u.

Question: And the “D-ECM induced myofibroblastic phenotype (α-SMA expression / stress fiber localization), in words” value ([8]; RCC)?
Answer: comparable

Question: And the “α-SMA expression, Median” value [8, 14]?
Answer: 0.41 a.u.

Question: And the “α-SMA stress fiber localization, Median” value [8, 14]?
Answer: 0.72 a.u.

Question: And the “α-SMA expression levels relative to untreated conditions” value ([8]; RCC, naïve fibroblasts plated in D-ECM in presence of the agent)?
Answer: 100%

Question: And the “myofibroblastic phenotype induced de novo by the extracted ECM, in words” value ([8]; naïve renal fibroblasts re-seeded in D-ECM produced in presence of SB-431542)?
Answer: comparable phenotypes

Question: And the “de novo N-ECM assembly” value [9]?
Answer: prevented de novo N-ECM assembly

Question: `CC(C)(C)n1nc(-c2ccc(Cl)cc2)c2c(N)ncnc21` [PP2] was tested. Which “D-ECM induced myofibroblastic phenotype (α-SMA expression / stress fiber localization), in words” value ([4]; PDAC) did it give?
Answer: D-ECM-induced phenotype was lost

Question: What about the “D-ECM induced myofibroblastic phenotype (α-SMA expression / stress fiber localization), in words” value ([8]; RCC) of the same compound?
Answer: D-ECM-induced phenotype was lost
